Source: PubChem BioAssay (NCI)
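GI50 marks 50% less growth. TGI marks complete inhibition of growth.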

What was measured:
Assay in all cases: NCI-60 cell line screen, 384-well format
[1] = tested on: U251 glioblastoma
[2] = tested on: NCI/ADR-RES ovarian
[3] = tested on: MALME-3M melanoma
[4] = tested on: K-562 leukemia
[5] = tested on: OVCAR-5 ovarian
[6] = tested on: BT-549 breast
[7] = tested on: HL-60(TB) leukemia
[8] = tested on: ACHN renal
[9] = tested on: RXF 393 renal
[10] = tested on: PC-3 prostate
[11] = tested on: OVCAR-4 ovarian
[12] = tested on: M14 melanoma
[13] = tested on: A498 renal
[14] = tested on: HS 578T breast
[15] = tested on: IGROV1 ovarian
[16] = tested on: MCF7 breast
[17] = tested on: KM12 colon
[18] = tested on: HOP-62 NSCLC
[19] = tested on: HCC-2998 colon
[20] = tested on: COLO 205 colon
[21] = tested on: SF-268 CNS
[22] = tested on: NCI-H226 lung
[23] = tested on: HCT-15 colon
[24] = tested on: SK-MEL-5 melanoma
[25] = tested on: NCI-H23 lung
[26] = tested on: OVCAR-3 ovarian
[27] = tested on: SF-539 CNS
[28] = tested on: TK-10 renal
[29] = tested on: CAKI-1 renal

O=C(Nc1cccc(Nc2ncc(Br)c(NCCc3cnc[nH]3)n2)c1)N1CCCC1
GI50 [1]: 9.49 µM
TGI [1]: 79.1 µM
GI50 [2]: > 100 µM
TGI [2]: > 100 µM
GI50 [3]: 4.16 µM
TGI [3]: 17.9 µM
GI50 [4]: 2.05 µM
TGI [4]: 10.5 µM
GI50 [5]: 4.3 µM
TGI [5]: 24.9 µM
GI50 [6]: 1.57 µM
TGI [6]: 5.23 µM
GI50 [7]: 0.399 µM
TGI [7]: 1.94 µM
GI50 [8]: 12.8 µM
TGI [8]: 59.5 µM
GI50 [9]: 6.04 µM
TGI [9]: 20.9 µM
GI50 [10]: 4.38 µM
TGI [10]: 18.4 µM
GI50 [11]: 1.13 µM
TGI [11]: 10.4 µM
GI50 [12]: 3.02 µM
TGI [12]: 12.9 µM
GI50 [13]: 4.58 µM
TGI [13]: 60.7 µM
GI50 [14]: 1.44 µM
TGI [14]: 3.59 µM
GI50 [15]: 6.48 µM
TGI [15]: 21.1 µM
GI50 [16]: 3.67 µM
TGI [16]: 19.9 µM
GI50 [17]: 0.684 µM
TGI [17]: 10.6 µM
GI50 [18]: 2.78 µM
TGI [18]: 12.4 µM
GI50 [19]: 6.06 µM
TGI [19]: 19 µM
GI50 [20]: 0.273 µM
TGI [20]: 0.886 µM
GI50 [21]: 1.92 µM
TGI [21]: 10.2 µM
GI50 [22]: 0.873 µM
TGI [22]: 4.74 µM
GI50 [23]: 11.4 µM
TGI [23]: 25.6 µM
GI50 [24]: 3.58 µM
TGI [24]: 14.6 µM
GI50 [25]: 2.31 µM
TGI [25]: 10.7 µM
GI50 [26]: 2.72 µM
TGI [26]: 17.3 µM
GI50 [27]: 0.955 µM
TGI [27]: 4.06 µM
GI50 [28]: 7.86 µM
TGI [28]: 23.8 µM
GI50 [29]: 3.62 µM
TGI [29]: 19.7 µM
